Measured values reported in article PMC10934261, “Designing Potent Anti-Cancer Agents: Synthesis and Molecular Docking Studies of Thieno[2,3-d][1,2,4]triazolo[1,5-a]pyrimidine Derivatives” (Molecules, 2024).

Key:
[1] = system: human prostate PC-3 cancer cell line; experiment: In vitro cytotoxic screening (MTT assay), PC-3; type: cell-based; conditions: for IC50: Homo sapiens, PC-3, 48 h incubation, mean of three values, read-out: IC50 (Mean ± SD) PC-3; for Percentage cytotoxicity on PC-3: average ± standard deviation
Protocol: (§1) Using human breast MCF-7, colorectal HCT-116, and prostate PC-3 cancer cell lines, preliminary antiproliferative effectiveness of cyclopenta[4,5]thieno[2,3-d][1,2,4]triazolo[1,5-a]pyrimidin-9(6H)-ones 4–16 was established in vitro through MTT assay at different concentrations (100, 50, 25 and 12.5 μM) (Figure 2).
(§2) The cell lines were obtained from Karolinska Center, Department of Oncology and Pathology, Karolinska Institute and Hospital, Stockholm, Sweden. as follows: human breast MCF-7, colorectal HCT-116 and prostate PC-3 cancer cell lines and human skin normal BJ-1 cell line. Exponentially, cells were cultured at a concentration of 10^4 cells/well for 24 h, afterwards fresh medium containing different concentrations of the tested samples was added. Serial two-fold dilution of the tested samples were added using a multichannel pipette. Moreover, all cells were cultivated at 37 °C, 5% CO2 and 95% humidity. Also, incubation of control cells occurred at 37 °C. However, after incubation for 24 h different concentrations of samples (100, 50, 25 and 12.5 µM) were added and the incubation was continued for 48 h, then crystal violet solution 1% was added to each well for 0.5 h to examine the presence of viable cells. After rinsing the wells using water until stain free, 30% glacial acetic acid was added to all wells with shaking the plates on a Microplate reader (TECAN, Inc.) to measure the absorbance at a wavelength of 490 nm. The cytotoxicity was estimated by IC50 in μM, which is the concentration that inhibits 50% of growth of cancer cells. […]
(§3) 1.1. In vitro cytotoxic screening
(§4) The cell lines were obtained from Karolinska Center, Department of Oncology and Pathology, Karolinska Institute and Hospital, Stockholm, Sweden. as follows: human breast MCF-7, colorectal HCT-116 and prostate PC-3 cancer cell lines and human skin normal BJ-1 cell line. Exponentially, cells were placed in 10^4 cells/ well for 24 h, and then add fresh medium which containing different concentration of the tested sample. Serial two-fold dilution of the tested sample were added using a multichannel pipette. Moreover, all cells were cultivated at 37 °C, 5% CO2 and 95% humidity. Also, incubation of control cells occurred at 37 °C. However, after incubation for 24 h different concentrations of sample (100, 50, 25 and 12.5 µM) were added and continued the incubation for 48 h, then, add the crystal violet solution 1% to each well for 0.5 h to examine viable cells. Rinse the wells using water until no stain. After that, add 30% glacial acetic acid to all wells with shaking plates on Microplate reader (TECAN, Inc.) to measure the absorbance, using a test wavelength of 490 nm. Besides, compare the treated samples with the control cell. The cytotoxicity was estimated by IC50 in (μ M), the concentration that inhibits 50% of growth of cancer cell. […]
(§5) The molecular docking simulation of the promising in vitro screened cyclopenta[4,5]thieno[2,3-d][1,2,4]triazolo[1,5-a]pyrimidin-9(6H)-ones 10b and 10e against EGFR and PI3K was done using the Molecular Operating Environment software (MOE-Dock) version 2014.0901. The co-crystallized structures of EGFR and PI3K kinases complexed with their native ligands, erlotinib and quinolone LXX, were downloaded from the protein data bank (PDB codes: 1M17 and 3L54, respectively). All minimizations were performed using MOE until an RMSD gradient of 0.05 kcal∙mol−1Å−1 with MMFF94x force field and the partial charges were automatically calculated. Preparation of the enzyme structures was done for molecular docking using Protonate 3D protocol with the default options in MOE. London dG scoring function and Triangle Matcher placement method were used in the docking protocol. Initially, the original ligands were re-docked into the active binding site of EGFR and PI3K kinases to assess the root-mean-square deviation values. Then, the docking studies of the newly targeted […]

[2] = system: human skin normal cell line (BJ-1); experiment: Cytotoxicity on normal cells (MTT assay), BJ-1; type: cell-based; conditions: for IC50: Homo sapiens, BJ-1 normal skin cells, 48 h incubation, mean of three values, read-out: IC50 (Mean ± SD) BJ-1; for Percentage cytotoxicity on normal BJ1 human skin fibroblast cell line: average ± standard deviation
Protocol: It can therefore be concluded that 10b presents a safer cytotoxicity profile than 10e.
as §2, with “However, after incubation for 24 h different concentrations of samples (100, 50, 25 and 12.5 µM) were added and the incubation was continued for 48 h, then crystal violet solution 1% was added to each well for 0.5 h to examine the presence of viable cells.” left out
as §3
The cell lines were obtained from Karolinska Center, Department of Oncology and Pathology, Karolinska Institute and Hospital, Stockholm, Sweden. as follows: human breast MCF-7, colorectal HCT-116 and prostate PC-3 cancer cell lines and human skin normal BJ-1 cell line. Exponentially, cells were placed in 10^4 cells/ well for 24 h, and then add fresh medium which containing different concentration of the tested sample. Serial two-fold dilution of the tested sample were added using a multichannel pipette. Moreover, all cells were cultivated at 37 °C, 5% CO2 and 95% humidity. Also, incubation of control cells occurred at 37 °C. […]
Rinse the wells using water until no stain. After that, add 30% glacial acetic acid to all wells with shaking plates on Microplate reader (TECAN, Inc.) to measure the absorbance, using a test wavelength of 490 nm. Besides, compare the treated samples with the control cell. The cytotoxicity was estimated by IC50 in (μ M), the concentration that inhibits 50% of growth of cancer cell. […]
as §5, with “targeted compounds were estimated within the ATP-binding sites after elimination of the co-crystallized” for “targeted”
Percentage cytotoxicity of 100 µM of the compounds on human tumor cell lines*

[3] = system: human colorectal HCT-116 cancer cell line; experiment: In vitro cytotoxic screening (MTT assay), HCT-116; type: cell-based; conditions: for IC50: Homo sapiens, HCT-116, 48 h incubation, mean of three values, read-out: IC50 (Mean ± SD) HCT-116; for Percentage cytotoxicity on HCT-116: average ± standard deviation
Protocol: as §1, §2, §3, §4, §5

[4] = system: human breast MCF-7 cancer cell line; experiment: In vitro cytotoxic screening (MTT assay), MCF-7; type: cell-based; conditions: for IC50: Homo sapiens, MCF7, MCF-7, 48 h incubation, mean of three values, read-out: IC50 (Mean ± SD) MCF-7; for Percentage cytotoxicity on MCF-7: average ± standard deviation
Protocol: as §1, §2, §3, §4, §5

SMILES | melting point [°C] | IC50 [1] [µM] | IC50 [2] [µM] | IC50 [3] [µM] | IC50 [4] [µM] | Percentage cytotoxicity on PC-3 ([1]; 12.5 µM) [%] | Percentage cytotoxicity on PC-3 ([1]; 25 µM) [%] | Percentage cytotoxicity on PC-3 ([1]; 50 µM) [%] | Percentage cytotoxicity on PC-3 ([1]; 100 µM) [%] | Percentage cytotoxicity on normal BJ1 human skin fibroblast cell line ([2]; 12.5 µM) [%] | Percentage cytotoxicity on normal BJ1 human skin fibroblast cell line ([2]; 25 µM) [%] | Percentage cytotoxicity on normal BJ1 human skin fibroblast cell line ([2]; 50 µM) [%] | Percentage cytotoxicity on HCT-116 ([3]; 12.5 µM) [%] | Percentage cytotoxicity on HCT-116 ([3]; 25 µM) [%] | Percentage cytotoxicity on HCT-116 ([3]; 50 µM) [%] | Percentage cytotoxicity on HCT-116 ([3]; 100 µM) [%] | Percentage cytotoxicity on MCF-7 ([4]; 12.5 µM) [%] | Percentage cytotoxicity on MCF-7 ([4]; 25 µM) [%] | Percentage cytotoxicity on MCF-7 ([4]; 50 µM) [%] | Percentage cytotoxicity on MCF-7 ([4]; 100 µM) [%] | other results
COc1cccc2c1C(=O)c1c(O)c3c(c(O)c1C2=O)C[C@@](O)(C(=O)CO)C[C@@H]3O[C@H]1C[C@H](N)[C@H](O)[C@H](C)O1 [Doxorubicin, reference compound] | – | 6.8 ± 1.2 | 49.2 ± 1.08 | 20.5 ± 2.1 | 40 ± 3.9 | – | – | – | – | – | – | – | – | – | – | – | – | – | – | – | –
CC(=O)OC[C@H]1O[C@@H](n2cnn3c(=O)c4c5c(sc4nc23)CCC5)[C@H](OC(C)=O)[C@@H](OC(C)=O)[C@@H]1OC(C)=O [Compound 14, 3-(2,3,4,6-Tetra-O-acetyl-β-d-glocopyranosyl)-7,8-dihydro-3H-cyclopenta-[4,5]thieno-[2,3-d][1,2,4]triazolo[1,5-a]pyrimidin-9(6H)-one] | > 300 | – | – | – | – | 0.0±0.005 | 0.0±0.005 | 0.0±0.005 | 9.5±1.9 | – | – | – | 0.0±0.005 | 0.0±0.005 | 0.0±0.005 | 15.7±2.9 | 0.0±0.005 | 0.0±0.005 | 0.0±0.005 | 29.2±0.8 | –

Further lines, with some results ahead:

melting point [°C] | SMILES | IC50 [1] [µM] | IC50 [2] [µM] | IC50 [3] [µM] | IC50 [4] [µM] | Percentage cytotoxicity on PC-3 ([1]; 12.5 µM) [%] | Percentage cytotoxicity on PC-3 ([1]; 25 µM) [%] | Percentage cytotoxicity on PC-3 ([1]; 50 µM) [%] | Percentage cytotoxicity on PC-3 ([1]; 100 µM) [%] | Percentage cytotoxicity on normal BJ1 human skin fibroblast cell line ([2]; 12.5 µM) [%] | Percentage cytotoxicity on normal BJ1 human skin fibroblast cell line ([2]; 25 µM) [%] | Percentage cytotoxicity on normal BJ1 human skin fibroblast cell line ([2]; 50 µM) [%] | Percentage cytotoxicity on HCT-116 ([3]; 12.5 µM) [%] | Percentage cytotoxicity on HCT-116 ([3]; 25 µM) [%] | Percentage cytotoxicity on HCT-116 ([3]; 50 µM) [%] | Percentage cytotoxicity on HCT-116 ([3]; 100 µM) [%] | Percentage cytotoxicity on MCF-7 ([4]; 12.5 µM) [%] | Percentage cytotoxicity on MCF-7 ([4]; 25 µM) [%] | Percentage cytotoxicity on MCF-7 ([4]; 50 µM) [%] | Percentage cytotoxicity on MCF-7 ([4]; 100 µM) [%] | other results
101 to 103 | O=c1c2c3c(sc2nc2[nH]c(-c4c5ccccc5cc5ccccc45)nn12)CCC3 [Compound 10e, 2-(Anthracen-9-yl)-3,6,7,8-tetrahydro-9H-cyclopenta[4,5]thieno[2,3-d][1,2,4]triazolo[1,5-a]pyrimidin-9-one] | 25.2 ± 0.4 | 34.8 ± 4.5 | 57 ± 0.61 | 14.5 ± 0.3 | 29.6±3.8 | 56.6±1.3 | 64.2±1.1 | 75.9±1.3 | 13.8±2.1 | 44.8±1.9 | 58.1±3.2 | 0.0±0.005 | 19.0±4.9 | 34.9±2.8 | 86.7±4.4 | 37.9±6.7 | 85.6±3.6 | 97.9±1.2 | 98.3±0.5 | Percentage cytotoxicity on normal BJ1 human skin fibroblast cell line ([2]; 100 µM): 83.9±1.2%
268 to 270 | O=c1c2c3c(sc2nc2[nH]c(-c4ccc(Br)cc4)nn12)CCC3 [Compound 10b, 2-(4-Bromophenyl)-7,8-dihydro-3H-cyclopenta[4,5]thieno[2,3-d][1,2,4]triazolo[1,5-a]pyrimidin-9(6H)-one] | – | 222 ± 30 | – | 19.4 ± 0.22 | 10.9±5.2 | 18.4±1.7 | 22.1±0.6 | 41.4±0.7 | 16.8±8.3 | 34.2±7.4 | 34.6±3.8 | 6.2±0.9 | 14.3±1.7 | 15.0±2.5 | 24.4±6.6 | 30.3±4.3 | 64.4±2.2 | 80.8±2.8 | 86.4±10 | Percentage cytotoxicity on normal BJ1 human skin fibroblast cell line ([2]; 100 µM): 39.3±7.7%
220 | O=c1c2c3c(sc2nc2[nH]c(-c4ccc([N+](=O)[O-])cc4)nn12)CCC3 [Compound 10c, 2-(4-Nitrophenyl)-3,6,7,8-tetrahydro-9H-cyclopenta[4,5]thieno[2,3-d][1,2,4]triazolo[1,5-a]pyrimidin-9-one] | – | – | – | – | 48.3±2.0 | 53.4±1.2 | 54.8±1.6 | 54.7±2.8 | – | – | – | 20.2±2.9 | 38.2±0.9 | 39.4±0.9 | 40.4±2.4 | 8.18±1.01 | 24.04±2.59 | 25.97±1.28 | 33.62±2.13 | –
